According to patent US10577358B2, “Strigolactone formulations and uses thereof” (SOUND AGRICULTURE COMPANY, priority 2013, dated 2020):

Key:
[1] = test system: grain crop in Striga infested plots; assay: Field trial Siaya County, Kenya: grain yield; format: in vivo; details: 1 gram per acre sprayed 1 week prior to planting
Description: We have field trials underway outside of Kisumu, Kenya to test the efficacy of this treatment on maize yields in Striga infested fields.
(§1) Field trial was performed from August 2013 to January 2014 in Siaya County, Kenya. AB01 treated plots were sprayed with a 1 gram per acre dose 1 week prior to planting. Treatment was accomplished by resuspending solid AB01 in 1 mL of acetone, and diluting in 4000 L of water. 3 replicate treated and untreated plots (100 m2 each) were performed. […] (C) The biomass of Striga from each plot was collected and measured after harvest.

Striga = assay: Field trial Siaya County, Kenya: reduction of Striga; format: in vivo; details: 1 gram per acre sprayed 1 week prior to planting
Description: as §1

Wheat = assay: Drought tolerance in greenhouse wheat; format: in vivo; details: 1 mg in 100 mL water; irrigation stopped; 7 days post treatment
Description: Wheat was grown in greenhouse conditions from seed for 6 weeks with adequate irrigation. Plants were treated with 1 mg of AB01 resuspended in acetone and diluted in 100 mL water, or mock treated as a control. Irrigation was stopped and plants monitored for symptoms of drought stress.

MAX1 A. thaliana mutants = assay: Complementation of Arabidopsis mutant deficient in strigolactone biosynthesis; format: in vivo, Arabidopsis thaliana; details: 1 uM as an irrigation supplement vs mock treatment
Description: To further validate the bioactivity of AB01 we tested whether the compound could complement mutants of the model plant Arabidopsis thaliana that are deficient in strigolactone biosynthesis. […] We grew MAX1 A. thaliana under standard conditions and added 1 uM AB01 as an irrigation supplement, or a mock treatment. […] Thus, the synthetic AB01 is sufficiently similar to strigolactone to both to trigger Striga germination as well as substitute for the natural compound in a model plant.

[2] = test system: corn, Dekalb hybrid 68-05; assay: Corn field trial, Hays County, Tex., not irrigated; format: in vivo
Description: Field trial was performed from April to July 2014 in Hays County, Tex. Dekalb hybrid 68-05 was planted at a density of 25,000 plants per acre (30″ rows with 8″ spacing). The field was top-dressed with 80 lbs/ac nitrogen. The field was not irrigated. AB01 treated plots were sprayed with a 2 gram per acre dose at the tasseling (VT) stage. Spraying was accomplished by resuspending solid AB01 in 0.5 mL of acetone, and diluting in water for a spray volume of 1 gallon per 500 square feet. Experiments were performed in triplicate The fraction of fertilized ears was measured by visual inspection of the ear silk at the R2-R3 stage. Unfertilized silks that appear yellow/green, while fertilized silks appear reddish brown. Completely unfertilized ears have silks that are completely yellow/green, fertilized ears appear brown, while ears with an incomplete degree of fertilized silks have a mixed population of silks. […] Ears were visually inspected at harvest to monitor kernel set (the number of fully formed kernels in the mature ear). […] Ears volume was measured in the field at the R3 stage to calculate ear volume. The length and circumference of each ear was measure, and volume was calculated by treating the ear as a cylinder. Approximately 100 ears from each plot were measured. […] After harvest, ears were shelled and kernels counted and weighed to quantitate the ‘thousand kernel weight’ (TKW), or average mass of kernels in the trial. AB01 treated plots yielded kernels averaging 30% higher mass than control plots. Ears from control and treated plots were harvested, shelled, and moisture tested to quantitate dry mass. Control plots averaged 120 bushels per acre, while AB01 treated plots averaged 143 bushels per acre, a 19% increase. Grain yield is calculated at 15% moisture, a standard measure of harvest output.

Seeds of Striga asiatica = assay: Triggering Striga seed germination; format: in vivo; details: for bioactivity in Striga germination assay: FIG. 1
Description: (B) Bioactivity of synthetic SL. Seeds of Striga asiatica were exposed to SL (right) or a mock treatment (left). […] (C) Synthetic biological pathway for the production of SL in yeast, consisting of enzymes of plant and microbial origin. We tested the ability of AB01 to trigger the germination of Striga seeds. Seeds of Striga asiatica were conditioned by incubation in the dark at 30 degrees for 7 days, and dilutions of the AB01 material in water were applied. We observed that concentrations of 1 nanogram per liter and greater were able to trigger germination of approximately 30% of the seeds, which is similar to published efficiencies and activity for plant-derived strigolactone (FIG. 1A-B).

Tomato seedlings = assay: Salinity tolerance in tomato seedlings; format: in vivo; details: 10 mg/mL; 250 mL water with 29.2 g/L NaCl 24 hours after treatment; 6 hours after salt irrigation
Description: Tomato seedlings were treated with 10 mg/mL AB01 or mock treated. 24 hours after treatment, they were irrigated with 250 mL water containing 29.2 g/L salt (NaCl).

Seeds of O. cumana = assay: Germination triggering of parasitic weed seeds; format: in vivo; details: AB01 compared with 5-deoxystrigol; 48 hours post-treatment, triplicate
Description: Seeds of O. cumana were primed by incubation on glass fiber filters in darkness at room temperature for 3 days. Specified concentrations of AB01 or 5-dS were applied and seeds were monitored at 48 hours post-treatment. Germination was evident by appearance of haustoria. Experiments were performed in triplicate.

[3] = test system: Dekalb 67-86 RR corn seedlings; assay: Acute water stress in corn seedlings (leaf rolling score); format: in vivo; details: 40 mL of 0.1 mM or 1.0 mM; 6th day without irrigation; greenhouse
Description: Corn seedlings were scored as unstressed, moderately water stressed and severely water stressed as measured by visual inspection of leaf rolling, a response of corn to water stress. Dekalb 67-86 RR corn seeds were planted and then irrigated through 7 days after emergence in a greenhouse setting. Seedlings were then treated with 40 mL of water, 0.1 mM AB01 or 1.0 mM AB01 and irrigation ceased. On the 6th day without irrigation, seedlings were scored for water stress. Seedlings with open leaves were scored as unstressed; seedlings with partial leaf rolling were scored as moderately stressed; seedlings with completely rolled leaves were scored as severely stressed.

Alfalfa seedlings [4] = assay: Drought tolerance in alfalfa seedlings; format: in vivo; details: 1 mg/mL; irrigation stopped; approximately 7 days post-treatment
Description: Alfalfa was grown from seeds for 14 days. Seedlings were treated with 1 mg/mL AB01 or mock treated. Irrigation was stopped after treatment and seedlings were monitored for symptoms of water limitation stress.

Alfalfa seedlings [5] = assay: Salinity tolerance in alfalfa seedlings; format: in vivo; details: 1 mg/mL; irrigated every 48 hours with 100 mL water containing 35 g/L NaCl; after 5 days
Description: Alfalfa was grown from seeds for 14 days. Seedlings were treated with 1 mg/mL AB01 or mock treated. After treatment, plants were irrigated with 100 mL water containing 35 g/L dissolved salt (NaCl). Irrigation was performed every 48 hours and plants monitored for symptoms of salinity stress.

Striga hermonthica seeds = details: at 10^-8 M concentrations; cited from earlier work

## CC1=CC(O/C=C2\C(=O)O[C@]3(C)CCC4C(C)(C)CCC[C@]4(C)[C@@H]23)OC1=O (stereo partly shown) [AB01]
[1]
  increase of grain yield compared to untreated plots: 25%
Striga
  count of emergent Striga per plot: few parasites
Striga; 3 replicate plots of 100 m2
  Striga emergence and Striga-related stress during season: few signs of Striga-related stress and parasite emergence
Wheat
  symptoms of drought stress (wilting): appeared vigorous
MAX1 A. thaliana mutants
  effect on phenotype of strigolactone-deficient mutant: visible impact on the phenotype of the mutant
[2]; 2 gram per acre spray at VT
  increase of harvest yield over control plots: 19%
[2]; 2 gram per acre spray at VT, R3 stage, approximately 100 ears per plot, vs mock treated
  ear volume: significantly higher volumes
[2]; 2 gram per acre spray at VT, vs mock treated
  kernel set at harvest: more complete kernel set and few signs of kernel abortion
[2]; 2 gram per acre spray at tasseling (VT), R2-R3 stage, vs mock treated control
  fraction of fertilized ears (visual inspection of ear silk): decreased the fraction of unfertilized ears while increasing the fraction of fertilized ears
Seeds of Striga asiatica
  bioactivity in Striga germination assay: graded dose-response behavior
Seeds of Striga asiatica; listed as Synthetic SL
  bioactivity in Striga germination assay: potent bioactivity
Seeds of Striga asiatica; listed as synthetic SL
  bioactivity in Striga germination assay: displayed bioactivity
Seeds of Striga asiatica; listed as synthetically produced SL
  bioactivity in Striga germination assay: effective at germinating seeds of Striga asiatica
Seeds of Striga asiatica; Striga asiatica seeds conditioned 7 days, dilutions in water
  concentrations able to trigger germination: ≥ 1 nanogram per liter
Seeds of Striga asiatica; Striga asiatica seeds conditioned in the dark at 30 degrees for 7 days, dilutions in water, 1 nanogram per liter and greater
  seeds triggered to germinate: approximately 30%
Tomato seedlings
  symptoms of salinity shock (wilting): appeared unstressed
Seeds of O. cumana
  germination triggering efficiency (appearance of haustoria): Significant differences in germination triggering efficiency
[3]
  fraction of unstressed / severely water stressed seedlings: decreased the fraction of severely stressed seedlings while increasing the fraction of unstressed seedlings in a dose-dependent manner
Alfalfa seedlings [4]
  appearance of seedlings under water limitation: appeared robust
Alfalfa seedlings [5]
  vigor under salinity stress: significantly higher vigor

## CC1=C[C@H](O/C=C2/C(=O)O[C@@H]3C4=C(CCCC4(C)C)C[C@H]23)OC1=O [Formula 5-dS, 5-deoxystrigol, reference compound]
Seeds of O. cumana
  germination triggering efficiency (appearance of haustoria): Significant differences in germination triggering efficiency

## CC1=CC(OC=C2C(=O)OC3C4=C(CC23)C(O)CCC4(C)C)OC1=O (stereo not drawn) [ent-strigol]
Striga hermonthica seeds
  activity in germination studies of Striga hermonthica seeds: 22%
